The record followed here is US9163021B2, “Pyrrolo[3,2-c]pyridine tropomyosin-related kinase inhibitors” (Pfizer Limited, priority 2012, dated 2015).

In the test the target is TRKA (Homo sapiens (Human), UniProt P04629). The experiment in a line: Isolated TRK enzyme assay (HTRF KinEASE-TK), PV3144 TrkA enzyme assay. The note with it: arithmetic mean where more than one reading. The class given is biochemical. A digest of the protocol:
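His-tagged TrkA cytoplasmic domain preactivated with ATP 20 min, then with compound 20 min at room temperature before 1 µM final biotin-TK substrate; HTRF 665/620 nm read.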
On the technique in general: TR-FRET usually uses a lanthanide donor and a delayed reading to cut background.

Chain of TRKA (P04629 441-796): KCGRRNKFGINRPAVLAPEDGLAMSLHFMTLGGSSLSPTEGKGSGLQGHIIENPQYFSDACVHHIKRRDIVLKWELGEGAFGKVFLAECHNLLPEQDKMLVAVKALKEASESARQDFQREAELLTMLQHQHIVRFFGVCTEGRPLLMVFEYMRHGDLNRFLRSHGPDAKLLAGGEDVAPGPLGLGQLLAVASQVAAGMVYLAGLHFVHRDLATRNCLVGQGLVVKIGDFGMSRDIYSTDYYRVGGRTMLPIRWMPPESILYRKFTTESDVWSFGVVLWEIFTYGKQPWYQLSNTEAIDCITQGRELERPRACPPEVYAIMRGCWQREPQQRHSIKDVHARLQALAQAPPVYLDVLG

A word on the IC50: it is the concentration that inhibits the measured activity by half. A higher IC50 goes with lower potency. Compound `CC(C)n1cc(C(=O)c2ccnc(NC(=O)Cn3ccnc3)c2)c2cnccc21` [Example 102, 2-(1H-imidazol-1-yl)-N-(4-{[1-(propan-2-yl)-1H-pyrrolo[3,2-c]pyridin-3-yl]carbonyl}pyridin-2-yl)acetamide] registered a concentration for half-maximal inhibition (IC50) of 7450 nM.
Under `CC(C)n1ncc(CC(=O)Nc2cc(C(=O)c3cn(CCO)c4ccncc34)ccn2)c1C(F)(F)F` [Example 157, N-(4-{[1-(2-hydroxyethyl)-1H-pyrrolo[3,2-c]pyridin-3-yl]carbonyl}pyridin-2-yl)-2-[1-(propan-2-yl)-5-(trifluoromethyl)-1H-pyrazol-4-yl]acetamide] stands 420 nM; under `COCc1cn(CC(=O)Nc2cc(C(=O)c3cn(C(C)C)c4ccncc34)ccn2)nn1` [Example 176], 904 nM.
Under `CC(C)c1ccnn1CC(=O)Nc1cc(C(=O)c2cn(C(C)C)c3ccncc23)ccn1` [Example 111, 2-[5-(propan-2-yl)-1H-pyrazol-1-yl]-N-(4-{[1-(propan-2-yl)-1H-pyrrolo[3,2-c]pyridin-3-yl]carbonyl}pyridin-2-yl)acetamide] stands 96.8 nM; under `CC(C)(CO)n1cc(C(=O)c2cc(NC(=O)Cn3ccc(C(F)(F)F)n3)ccn2)c2cnccc21` [Example 10, N-(2-{[1-(1-hydroxy-2-methylpropan-2-yl)-1H-pyrrolo[3,2-c]pyridin-3-yl]carbonyl}pyridin-4-yl)-2-[3-(trifluoromethyl)-1H-pyrazol-1-yl]acetamide], 14 nM.
Compound `COc1ncc(C(=O)c2cn(C(C)C)c3ccncc23)cc1NC(=O)Cn1nc(C(F)(F)F)cc1C` [Example 48, N-(2-methoxy-5-{[1-(propan-2-yl)-1H-pyrrolo[3,2-c]pyridin-3-yl]carbonyl}pyridin-3-yl)-2-[5-methyl-3-(trifluoromethyl)-1H-pyrazol-1-yl]acetamide] registered an IC50 of 33.8 nM.
Under `CC(C)n1cc(C(=O)c2ccnc(NC(=O)Cc3cnccn3)c2)c2cnccc21` [Example 110, N-(4-{[1-(propan-2-yl)-1H-pyrrolo[3,2-c]pyridin-3-yl]carbonyl}pyridin-2-yl)-2-(pyrazin-2-yl)acetamide] stands 3330 nM; under `CC(C)n1cc(CC(=O)Nc2cncc(C(=O)c3cn(C(C)C)c4ccncc34)c2)c(C(F)(F)F)n1` [Example 50, N-(5-{[1-(propan-2-yl)-1H-pyrrolo[3,2-c]pyridin-3-yl]carbonyl}pyridin-3-yl)-2-[1-(propan-2-yl)-3-(trifluoromethyl)-1H-pyrazol-4-yl]acetamide], 133 nM; under `CC(CO)n1cc(C(=O)c2cncc(NC(=O)Cn3cc(C(F)(F)F)nn3)c2)c2cnccc21` (single isomer, unassigned) [Example 59, N-(5-{[1-(1-hydroxypropan-2-yl)-1H-pyrrolo[3,2-c]pyridin-3-yl]carbonyl}pyridin-3-yl)-2-[4-(trifluoromethyl)-1H-1,2,3-triazol-1-yl]acetamide], 63.9 nM.
Under `CC(C)n1cc(C(=O)c2ccnc(NC(=O)Cc3ccc(Cl)cc3)c2)c2cnccc21` [Example 103, 2-(4-chlorophenyl)-N-(4-{[1-(propan-2-yl)-1H-pyrrolo[3,2-c]pyridin-3-yl]carbonyl}pyridin-2yl)acetamide] stands 15.2 nM.
`CC(C)n1cc(C(=O)c2cncc(NC(=O)Cc3ccc(Cl)cc3)c2)c2cnccc21` [Example 116, 2-(4-chlorophenyl)-N-(5-{[1-(propan-2-yl)-1H-pyrrolo[3,2-c]pyridin-3-yl]carbonyl}pyridin-3-yl)acetamide]: the IC50 was found to be 11.3 nM.
On to `Cc1cc(C)n(CC(=O)Nc2cc(C(=O)c3cn(CCO)c4ccncc34)ccn2)n1` [Example 152, 2-(3,5-dimethyl-1H-pyrazol-1-yl)-N-(4-{[1-(2-hydroxyethyl)-1H-pyrrolo[3,2-c]pyridin-3-yl]carbonyl}pyridin-2-yl)acetamide], for which the IC50 is 2150 nM.
With `CC(C)n1cc(C(=O)c2ccnc(NC(=O)Cn3cncn3)c2)c2cnccc21` [Example 193, N-(4-{[1-(propan-2-yl)-1H-pyrrolo[3,2-c]pyridin-3-yl]carbonyl}pyridin-2-yl)-2-(1H-1,2,4-triazol-1-yl)acetamide] the figure was 10100 nM; with `CC(C)n1cc(C(=O)c2ccnc(NC(=O)Cn3cnnn3)c2)c2cnccc21` [Example 170, N-(4-{[1-(propan-2-yl)-1H-pyrrolo[3,2-c]pyridin-3-yl]carbonyl}pyridin-2-yl)-2(1H-tetrazol-1-yl)acetamide], 6510 nM.
With `CC(C)n1cc(C(=O)c2ccnc(NC(=O)Cc3ccccc3)c2)c2cnccc21` [Example 107, 2-phenyl-N-(4-{[1-(propan-2-yl)-1H-pyrrolo[3,2-c]pyridin-3-yl]carbonyl}pyridin-2-yl)acetamide] the figure was 64 nM; with `CC(C)n1cc(C(=O)c2cc(NC(=O)Cn3cc(C(F)(F)F)cn3)ccn2)c2cnccc21` [Example 30, N-(2-{[1-(propan-2-yl)-1H-pyrrolo[3,2-c]pyridin-3-yl]carbonyl}pyridin-4-yl)-2[4-(trifluoromethyl)-1H-pyrazol-1-yl]acetamide], 13.3 nM.
Under `CC(CO)n1cc(C(=O)c2cncc(NC(=O)Cn3cc(C4CC4)nn3)c2)c2cnccc21` (single isomer, unassigned) [Example 76, 2-(4-cyclopropyl-1H-1,2,3-triazol-1-yl)-N-(5-{[1-(1-hydroxypropan-2-yl)-1H-pyrrolo[3,2-c]pyridin-3-yl]carbonyl}pyridin-3-yl)acetamide] stands 121 nM; under `CC(C)n1cc(C(=O)c2ccnc(NC(=O)Cc3nc(C(C)(C)C)nn3C)c2)c2cnccc21` [Example 171, 2(3-tert-butyl-1-methyl-1H-1,2,4-triazol-5-yl)-N-(4-{[1-(propan-2-yl)-1H-pyrrolo[3,2-c]pyridin-3-yl]carbonyl}pyridin-2-yl)acetamide], 36.1 nM.
The compound `CC(C)c1cn(CC(=O)Nc2cncc(C(=O)c3cn(C(C)CO)c4ccncc34)c2)nn1` (single isomer, unassigned) [Example 70, N-(5-{[1-(1-hydroxypropan-2-yl)-1H-pyrrolo[3,2-c]pyridin-3-yl]carbonyl}pyridin-3-yl)-2-[4-(propan-2-yl)-1H-1,2,3-triazol-1-yl]acetamide] returned an IC50 of 65.6 nM.
Under `CC(C)n1cc(C(=O)c2cncc(NC(=O)Cc3cncn3C)c2)c2cnccc21` [Example 45, 2-(1-methyl-1H-imidazol-5-yl)-N-(5-{[1-(propan-2-yl)-1H-pyrrolo[3,2-c]pyridin-3-yl]carbonyl}pyridin-3-yl)acetamide] stands 1570 nM.
With `COc1ccc(CC(=O)Nc2cncc(C(=O)c3cn(C(C)C)c4ccncc34)c2)cc1` [Example 128, 2-(4-methoxyphenyl)-N-(5-{[1-(propan-2-yl)-1H-pyrrolo[3,2-c]pyridin-3-yl]carbonyl}pyridin-3-yl)acetamide], the IC50 was determined as 147 nM.
For the compound `CC(CO)n1cc(C(=O)c2cc(NC(=O)Cc3ccc(C(F)(F)F)cc3)ccn2)c2cnccc21` (stereo not drawn) [Example 230, N-(2-{[1-(1-hydroxypropan-2-yl)-1H-pyrrolo[3,2-c]pyridin-3-yl]carbonyl}pyridin-4-yl)-2-[4-(trifluoromethyl)phenyl]acetamide], the IC50 turned out to be 18.1 nM.
With `CC(C)c1cn(CC(=O)Nc2cc(C(=O)c3cn(C(C)C)c4ccncc34)ccn2)nn1` [Example 98, N-(4-{[1-(propan-2-yl)-1H-pyrrolo[3,2-c]pyridin-3-yl]carbonyl}pyridin-2-yl)-2[4-(propan-2-yl)-1H-1,2,3-triazol-1-yl]acetamide] the figure was 40.6 nM; with `CC(CO)n1cc(C(=O)c2cncc(NC(=O)Cc3ccc(Cl)cc3)c2)c2cncc(F)c21` (single isomer, unassigned) [Example 206, 2-(4-chlorophenyl)-N-(5-{[7-fluoro-1-(1-hydroxypropan-2-yl)-1H-pyrrolo[3,2-c]pyridin-3-yl]carbonyl}pyridin-3-yl)acetamide], 20.7 nM.
With `CC(CO)n1cc(C(=O)c2cncc(NC(=O)Cc3ccc(F)cn3)c2)c2cnccc21` (single isomer, unassigned) [Example 74, 2-(5-fluoropyridin-2-yl)-N-(5-{[1-(1-hydroxypropan-2-yl)-1H-pyrrolo[3,2-c]pyridin-3-yl]carbonyl}pyridin-3-yl)acetamide] the figure was 233 nM.
Compound `Cc1cc(C(F)(F)F)nn1CC(=O)Nc1cncc(C(=O)c2cn(C(C)C)c3ccncc23)c1` [Example 121, 2-(5-methyl-3-(trifluoromethyl)-1H-pyrazol-1-yl]-N(5-{[1-(propan-2-yl)-1H-pyrrolo[3,2-c]pyridin-3-yl]carbonyl}pyridin-3-yl)acetamide] displayed an IC50 of 14.3 nM.
With `CC(C)n1cc(C(=O)c2ccnc(NC(=O)Cc3nc(C4CC4)oc3C3CC3)c2)c2cnccc21` [Example 79, 2-(2,5-dicyclopropyl-1,3-oxazol-4-yl)-N-(4-{[1-(propan-2-yl)-1H-pyrrolo[3,2-c]pyridin-3-yl]carbonyl}pyridin-2-yl)acetamide] the figure was 26.1 nM; with `Cc1nc(C)n(CC(=O)Nc2cc(C(=O)c3cn(C(C)C)c4ccncc34)ccn2)n1` [Example 112, 2-(3,5-dimethyl-1H-1,2,4-triazol-1-yl)-N-(4-{[1-(propan-2-yl)-1H-pyrrolo[3,2-c]pyridin-3-yl]carbonyl}pyridin-2-yl)acetamide], 5110 nM; with `CC(CO)n1cc(C(=O)c2cncc(NC(=O)Cc3cccc(C(F)(F)F)c3)c2)c2cncc(F)c21` (single isomer, unassigned) [Example 226, N-(5-{[7-fluoro-1-(1-hydroxypropan-2-yl)-1H-pyrrolo[3,2-c]pyridin-3-yl]carbonyl}pyridin-3-yl)-2-[3-(trifluoromethyl)phenyl]acetamide], 11.3 nM.
With `CC(C)n1cc(C(=O)c2cc(NC(=O)Cc3ccc(C#N)cn3)ccn2)c2cnccc21` [Example 140, 2-(5-cyanopyridin-2-yl)-N-(2-{[1-(propan-2-yl)-1H-pyrrolo[3,2-c]pyridin-3-yl]carbonyl}pyridin-4-yl)acetamide] the figure was 207 nM.
